# What was measured:
# Type in all cases: in vivo
# [1] = system: GLXMA, Soybean, Glycine max, (L.) Merr.; test: Postemergence herbicidal evaluation (Example 147); conditions: rating scale 0-9, two to three weeks after treatment
# Method in brief: (§1)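 Ratings on a 0–9 scale cover stand, vigor, malformation, size and chlorosis versus untreated controls, scored two to three weeks after treatment and averaged across tests. Plants about two weeks old received a spray of about 0.016–0.032 kg/ha active in acetone/water (80/20) with 1.0% SUN-IT II.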
# [2] = system: TRZAW, Winter wheat, Tritium Aestivum, L. (Winter); test: Postemergence herbicidal evaluation (Example 147); conditions: rating scale 0-9, two to three weeks after treatment
# Method in brief: as §1
# [3] = system: ALOMY, Blackgrass, Alopecurus myosuroides; test: Postemergence herbicidal evaluation (Example 147); conditions: rating scale 0-9, two to three weeks after treatment
# Method in brief: as §1
# [4] = system: ABUTH, Velvetleaf, Abutilon theophrasti, Medic.; test: Postemergence herbicidal evaluation (Example 147); conditions: rating scale 0-9, two to three weeks after treatment
# Method in brief: as §1
# [5] = system: SETVI, Green foxtail, Setaria viridis, (L.)Beau; test: Postemergence herbicidal evaluation (Example 147); conditions: rating scale 0-9, two to three weeks after treatment
# Method in brief: as §1
# [6] = system: ECHCG, Barnyardgrass, Echinochloa crusgalli, (L.)Beau; test: Postemergence herbicidal evaluation (Example 147); conditions: rating scale 0-9, two to three weeks after treatment
# Method in brief: as §1
# [7] = system: ZEAMX, Field corn, Zea mays L.; test: Postemergence herbicidal evaluation (Example 147); conditions: rating scale 0-9, two to three weeks after treatment
# Method in brief: as §1
# [8] = system: DIGSA, Crabgrass, (Hairy) L, Digitaria sanguinalis, (L)Scop; test: Postemergence herbicidal evaluation (Example 147); conditions: rating scale 0-9, two to three weeks after treatment
# Method in brief: as §1
# [9] = system: CHEAL, Lambsquarters, Chenopodium album, L. Common; test: Postemergence herbicidal evaluation (Example 147); conditions: rating scale 0-9, two to three weeks after treatment
# Method in brief: as §1
# [10] = system: XANST, Cocklebur, Xanthium strumariam; test: Postemergence herbicidal evaluation (Example 147); conditions: rating scale 0-9, two to three weeks after treatment
# Method in brief: as §1
# [11] = system: AMBEL, Ragweed, Common, Ambrosia artemiisifolia, L.; test: Postemergence herbicidal evaluation (Example 147); conditions: rating scale 0-9, two to three weeks after treatment
# Method in brief: as §1
# [12] = system: IPOHE, Morningglory, Ivyleaf, Ipomoea hederacea, (L)Jacq.; test: Postemergence herbicidal evaluation (Example 147); conditions: rating scale 0-9, two to three weeks after treatment
# Method in brief: as §1
# [13] = system: GLXMA, Soybean, Glycine max, (L.) Merr.; test: Preemergence herbicidal evaluation (Example 148); conditions: rating scale 0-9, two to four weeks after treatment
# Method in brief: (§2)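 Rate ~0.125–0.250 kg/ha, aqueous acetone spray onto soil post-sowing, pre-emergence. Greenhouse 2–4 wk. Visual injury score vs control; replicates averaged.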
# [14] = system: TRZAW, Winter wheat, Tritium Aestivum, L. (Winter); test: Preemergence herbicidal evaluation (Example 148); conditions: rating scale 0-9, two to four weeks after treatment
# Method in brief: as §2
# [15] = system: ALOMY, Blackgrass, Alopecurus myosuroides; test: Preemergence herbicidal evaluation (Example 148); conditions: rating scale 0-9, two to four weeks after treatment
# Method in brief: as §2
# [16] = system: ABUTH, Velvetleaf, Abutilon theophrasti, Medic.; test: Preemergence herbicidal evaluation (Example 148); conditions: rating scale 0-9, two to four weeks after treatment
# Method in brief: as §2
# [17] = system: SETVI, Green foxtail, Setaria viridis, (L.)Beau; test: Preemergence herbicidal evaluation (Example 148); conditions: rating scale 0-9, two to four weeks after treatment
# Method in brief: as §2
# [18] = system: ECHCG, Barnyardgrass, Echinochloa crusgalli, (L.)Beau; test: Preemergence herbicidal evaluation (Example 148); conditions: rating scale 0-9, two to four weeks after treatment
# Method in brief: as §2
# [19] = system: ZEAMX, Field corn, Zea mays L.; test: Preemergence herbicidal evaluation (Example 148); conditions: rating scale 0-9, two to four weeks after treatment
# Method in brief: as §2
# [20] = system: DIGSA, Crabgrass, (Hairy) L, Digitaria sanguinalis, (L)Scop; test: Preemergence herbicidal evaluation (Example 148); conditions: rating scale 0-9, two to four weeks after treatment
# Method in brief: as §2
# [21] = system: CHEAL, Lambsquarters, Chenopodium album, L. Common; test: Preemergence herbicidal evaluation (Example 148); conditions: rating scale 0-9, two to four weeks after treatment
# Method in brief: as §2
# [22] = system: XANST, Cocklebur, Xanthium strumariam; test: Preemergence herbicidal evaluation (Example 148); conditions: rating scale 0-9, two to four weeks after treatment
# Method in brief: as §2
# [23] = system: AMBEL, Ragweed, Common, Ambrosia artemiisifolia, L.; test: Preemergence herbicidal evaluation (Example 148); conditions: rating scale 0-9, two to four weeks after treatment
# Method in brief: as §2
# [24] = system: IPOHE, Morningglory, Ivyleaf, Ipomoea hederacea, (L)Jacq.; test: Preemergence herbicidal evaluation (Example 148); conditions: rating scale 0-9, two to four weeks after treatment
# Method in brief: as §2
smiles,measurement,setting,value
C#CCN(C)S(=O)(=O)NC(=O)c1cc(-n2c(=O)cc(C(F)(F)F)n(C)c2=O)c(F)cc1Cl [Example 57],Postemergence herbicidal rating GLXMA,[1]; rate 0.016 kg/ha,6.0
same,Postemergence herbicidal rating GLXMA,[1]; rate 0.032 kg/ha,6.5
same,Postemergence herbicidal rating TRZAW,[2]; rate 0.016 kg/ha,2.0
same,Postemergence herbicidal rating TRZAW,[2]; rate 0.032 kg/ha,2.5
same,Postemergence herbicidal rating ALMOY,[3]; rate 0.016 kg/ha,0.0
same,Postemergence herbicidal rating ALMOY,[3]; rate 0.032 kg/ha,1.0
same,Postemergence herbicidal rating ABUTH,[4]; rate 0.016 kg/ha,2.0
same,Postemergence herbicidal rating ABUTH,[4]; rate 0.032 kg/ha,5.0
same,Postemergence herbicidal rating SETVI,[5]; rate 0.016 kg/ha,1.0
same,Postemergence herbicidal rating SETVI,[5]; rate 0.032 kg/ha,3.0
same,Postemergence herbicidal rating ECHCG,[6]; rate 0.016 kg/ha,1.0
same,Postemergence herbicidal rating ECHCG,[6]; rate 0.032 kg/ha,2.0
same,Postemergence herbicidal rating ZEAMX,[7]; rate 0.016 kg/ha,2.0
same,Postemergence herbicidal rating ZEAMX,[7]; rate 0.032 kg/ha,5.0
same,Postemergence herbicidal rating DIGSA,[8]; rate 0.016 kg/ha,1.0
same,Postemergence herbicidal rating DIGSA,[8]; rate 0.032 kg/ha,2.0
same,Postemergence herbicidal rating CHEAL,[9]; rate 0.016 kg/ha,1.0
same,Postemergence herbicidal rating CHEAL,[9]; rate 0.032 kg/ha,2.0
same,Postemergence herbicidal rating XANST,[10]; rate 0.016 kg/ha,2.0
same,Postemergence herbicidal rating XANST,[10]; rate 0.032 kg/ha,3.0
same,Postemergence herbicidal rating AMBEL,[11]; rate 0.016 kg/ha,1.0
same,Postemergence herbicidal rating AMBEL,[11]; rate 0.032 kg/ha,2.0
same,Postemergence herbicidal rating IPOHE,[12]; rate 0.016 kg/ha,6.0
same,Postemergence herbicidal rating IPOHE,[12]; rate 0.032 kg/ha,4.0
same,Preemergence herbicidal rating GLXMA,[13]; rate 0.125 kg/ha,0.0
same,Preemergence herbicidal rating GLXMA,[13]; rate 0.25 kg/ha,1.0
same,Preemergence herbicidal rating TRZAW,[14]; rate 0.125 kg/ha,0.0
same,Preemergence herbicidal rating TRZAW,[14]; rate 0.25 kg/ha,0.0
same,Preemergence herbicidal rating ALMOY,[15]; rate 0.125 kg/ha,0.0
same,Preemergence herbicidal rating ALMOY,[15]; rate 0.25 kg/ha,0.0
same,Preemergence herbicidal rating ABUTH,[16]; rate 0.125 kg/ha,2.0
same,Preemergence herbicidal rating ABUTH,[16]; rate 0.25 kg/ha,2.0
same,Preemergence herbicidal rating SETVI,[17]; rate 0.125 kg/ha,0.0
same,Preemergence herbicidal rating SETVI,[17]; rate 0.25 kg/ha,1.0
same,Preemergence herbicidal rating ECHCG,[18]; rate 0.125 kg/ha,1.0
same,Preemergence herbicidal rating ECHCG,[18]; rate 0.25 kg/ha,2.0
same,Preemergence herbicidal rating ZEAMX,[19]; rate 0.125 kg/ha,0.0
same,Preemergence herbicidal rating ZEAMX,[19]; rate 0.25 kg/ha,0.0
same,Preemergence herbicidal rating DIGSA,[20]; rate 0.125 kg/ha,1.0
same,Preemergence herbicidal rating DIGSA,[20]; rate 0.25 kg/ha,3.0
same,Preemergence herbicidal rating CHEAL,[21]; rate 0.125 kg/ha,6.0
same,Preemergence herbicidal rating CHEAL,[21]; rate 0.25 kg/ha,8.0
same,Preemergence herbicidal rating XANST,[22]; rate 0.125 kg/ha,0.0
same,Preemergence herbicidal rating XANST,[22]; rate 0.25 kg/ha,0.0
same,Preemergence herbicidal rating AMBEL,[23]; rate 0.125 kg/ha,2.0
same,Preemergence herbicidal rating AMBEL,[23]; rate 0.25 kg/ha,2.0
same,Preemergence herbicidal rating IPOHE,[24]; rate 0.125 kg/ha,0.0
same,Preemergence herbicidal rating IPOHE,[24]; rate 0.25 kg/ha,3.0
CCNS(=O)(=O)NC(=O)c1cc(-n2c(=O)cc(C(F)(F)F)n(C)c2=O)c(F)cc1Cl [Example 80],Postemergence herbicidal rating GLXMA,[1]; rate 0.016 kg/ha,8.0
same,Postemergence herbicidal rating GLXMA,[1]; rate 0.032 kg/ha,8.0
same,Postemergence herbicidal rating TRZAW,[2]; rate 0.016 kg/ha,3.0
same,Postemergence herbicidal rating TRZAW,[2]; rate 0.032 kg/ha,4.0
same,Postemergence herbicidal rating ALMOY,[3]; rate 0.016 kg/ha,0.0
same,Postemergence herbicidal rating ALMOY,[3]; rate 0.032 kg/ha,1.0
same,Postemergence herbicidal rating ABUTH,[4]; rate 0.016 kg/ha,7.0
same,Postemergence herbicidal rating ABUTH,[4]; rate 0.032 kg/ha,9.0
same,Postemergence herbicidal rating SETVI,[5]; rate 0.016 kg/ha,5.0
same,Postemergence herbicidal rating SETVI,[5]; rate 0.032 kg/ha,6.0
same,Postemergence herbicidal rating ECHCG,[6]; rate 0.016 kg/ha,4.0
same,Postemergence herbicidal rating ECHCG,[6]; rate 0.032 kg/ha,6.0
same,Postemergence herbicidal rating ZEAMX,[7]; rate 0.016 kg/ha,1.5
same,Postemergence herbicidal rating ZEAMX,[7]; rate 0.032 kg/ha,4.0
same,Postemergence herbicidal rating DIGSA,[8]; rate 0.016 kg/ha,3.0
same,Postemergence herbicidal rating DIGSA,[8]; rate 0.032 kg/ha,4.0
same,Postemergence herbicidal rating CHEAL,[9]; rate 0.016 kg/ha,3.0
same,Postemergence herbicidal rating CHEAL,[9]; rate 0.032 kg/ha,4.0
same,Postemergence herbicidal rating XANST,[10]; rate 0.016 kg/ha,8.0
same,Postemergence herbicidal rating XANST,[10]; rate 0.032 kg/ha,9.0
same,Postemergence herbicidal rating AMBEL,[11]; rate 0.016 kg/ha,7.0
same,Postemergence herbicidal rating AMBEL,[11]; rate 0.032 kg/ha,8.0
same,Postemergence herbicidal rating IPOHE,[12]; rate 0.016 kg/ha,9.0
same,Postemergence herbicidal rating IPOHE,[12]; rate 0.032 kg/ha,9.0
same,Preemergence herbicidal rating GLXMA,[13]; rate 0.125 kg/ha,0.0
same,Preemergence herbicidal rating GLXMA,[13]; rate 0.25 kg/ha,0.0
same,Preemergence herbicidal rating TRZAW,[14]; rate 0.125 kg/ha,0.0
same,Preemergence herbicidal rating TRZAW,[14]; rate 0.25 kg/ha,0.0
same,Preemergence herbicidal rating ALMOY,[15]; rate 0.125 kg/ha,0.0
same,Preemergence herbicidal rating ALMOY,[15]; rate 0.25 kg/ha,0.0
same,Preemergence herbicidal rating ABUTH,[16]; rate 0.125 kg/ha,1.0
same,Preemergence herbicidal rating ABUTH,[16]; rate 0.25 kg/ha,5.0
same,Preemergence herbicidal rating SETVI,[17]; rate 0.125 kg/ha,0.0
same,Preemergence herbicidal rating SETVI,[17]; rate 0.25 kg/ha,0.0
same,Preemergence herbicidal rating ECHCG,[18]; rate 0.125 kg/ha,0.0
same,Preemergence herbicidal rating ECHCG,[18]; rate 0.25 kg/ha,3.0
same,Preemergence herbicidal rating ZEAMX,[19]; rate 0.125 kg/ha,0.0
same,Preemergence herbicidal rating ZEAMX,[19]; rate 0.25 kg/ha,0.0
same,Preemergence herbicidal rating DIGSA,[20]; rate 0.125 kg/ha,0.0
same,Preemergence herbicidal rating DIGSA,[20]; rate 0.25 kg/ha,1.0
same,Preemergence herbicidal rating CHEAL,[21]; rate 0.125 kg/ha,5.0
same,Preemergence herbicidal rating CHEAL,[21]; rate 0.25 kg/ha,8.0
same,Preemergence herbicidal rating XANST,[22]; rate 0.125 kg/ha,0.0
same,Preemergence herbicidal rating XANST,[22]; rate 0.25 kg/ha,1.0
same,Preemergence herbicidal rating AMBEL,[23]; rate 0.125 kg/ha,1.0
same,Preemergence herbicidal rating AMBEL,[23]; rate 0.25 kg/ha,3.0
same,Preemergence herbicidal rating IPOHE,[24]; rate 0.125 kg/ha,0.0
same,Preemergence herbicidal rating IPOHE,[24]; rate 0.25 kg/ha,0.0

# Reference: patent US6689773B2, “Uracil substituted phenyl sulfamoyl carboxamides” (BASF Aktiengesellschaft, priority 2000, dated 2004)
